Patent publication US12606541B2, “PPARg modulators and methods of use” (Eisai R&D Management Co., Ltd., priority 2020, dated 2026)
Read-outs that look alike come from different tables or passages of the source.

Assays:
His6-TEV-PPARγ-(234-505) = biological target: T1, His6-TEV-PPARγ-(234-505) (Homo sapiens, UniProt P37231); experiment: TR-FRET Assay to Measure Co-R Peptide Recruitment to PPARγ; assay type: biochemical; details: Co-R peptide (SMRT-ID2) recruitment, top final concentration 20 μM, read-out: TR-FRET i-Ag, AC50
T1 construct: The His6-TEV-PPARγ-(234-505) protein for assay was expressed and purified; TEV cleavage site (N); made in house
T1 sequence (P37231 234-505): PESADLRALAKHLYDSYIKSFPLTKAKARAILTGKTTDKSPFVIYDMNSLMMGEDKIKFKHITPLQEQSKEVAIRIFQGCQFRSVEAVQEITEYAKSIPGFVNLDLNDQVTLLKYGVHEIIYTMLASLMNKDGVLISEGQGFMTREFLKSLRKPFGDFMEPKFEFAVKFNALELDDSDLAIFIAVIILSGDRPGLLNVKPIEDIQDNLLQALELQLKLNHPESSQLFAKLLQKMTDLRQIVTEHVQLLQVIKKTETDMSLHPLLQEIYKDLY
Procedure, shortened: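 His-tagged PPARγ (or controls) was preincubated with compound for 20 minutes at room temperature, then 5 nM anti-His terbium antibody and 200 nM FITC-labeled SMRT-ID2 corepressor peptide (final) were added for a further hour. TR-FRET signal was normalized to percent response using 500 nM T0070907 and DMSO controls.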

UM-UC-9 engineered cells = experiment: Cell proliferation / short-term viability assay, CellTiter-Glo 144 h; assay type: cell-based, human; details: read-out: CTGlo 144 h UMUC9.5, G150
Procedure, shortened: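 UM-UC-9 engineered assay-ready cells seeded at 500 cells/well in high-glucose DMEM/10% FBS, treated from dose-response plates, grown at 37° C, 5% CO2. CellTiter-Glo 2.0 luminescence read on day 7, with a day-0 pretreatment plate as T0 reference and DMSO wells as negative control.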

| AC50 (His6-TEV-PPARγ-(234-505)) [nM] | SMILES | IC50 (UM-UC-9 engineered cells) [nM] | IC50 (UM-UC-9 engineered cells; Homo sapiens, UM-UC-9, 144 h) [nM] | AC50 (His6-TEV-PPARγ-(234-505); listed as 115a) [nM] | IC50 (UM-UC-9 engineered cells; listed as 115a) [nM] |
| --- | --- | --- | --- | --- | --- |
| 5.3 | COc1cc(-c2cc(C(=O)N3CC[C@H](C(=O)NC4CCCn5cc(C(F)(F)F)nc54)CC34CC4)n[nH]2)c(F)cn1 (single isomer, unassigned) [Example 502-B] | 66.1 | – | – | – |
| 723 | COc1cc(-c2cc(C(=O)N3CCC(C(=O)NC4CCC(O)(C(F)(F)F)CC4)CC34CC4)n[nH]2)ncn1 (single isomer, unassigned) [Example 338-B] | 1320 | – | – | – |
| 6.6 | COc1cc(-c2cc(C(=O)N3CC[C@H](C(=O)N[C@H]4CC[C@@](OC[C@H](C)O)(C(F)(F)F)CC4)CC34CC4)n[nH]2)c(F)cn1 [Example 353, (S)-4-(5-(5-fluoro-2-methoxypyridin-4-yl)-1H-pyrazole-3-carbonyl)-N-((1S,4S)-4-((S)-2-hydroxypropoxy)-4-(trifluoromethyl)cyclohexyl)-4-azaspiro[2.5]octane-7-carboxamide] | – | 6 | – | – |
| 286 | COc1cc(-c2cc(C(=O)N3CCC(C(=O)NCC4CC(F)(F)CO4)CC3)n[nH]2)c(Cl)cn1 (racemic) [Example 220, 1-(5-(5-chloro-2-methoxypyridin-4-yl)-1H-pyrazole-3-carbonyl)-N-((4,4-difluorotetrahydrofuran-2-yl)methyl)piperidine-4-carboxamide] | – | 2130 | – | – |
| 1030 | COc1cc(-c2cc(C(=O)N3CC[C@H](C(=O)NC4CCC(C)(C)N(C)C4)CC34CC4)n[nH]2)c(F)cn1 (single isomer, unassigned) [Example 424-A] | 2980 | – | – | – |
| 34.1 | COc1cc(-c2cc(C(=O)N3CC[C@H](C(=O)NC4CN(CC5(F)CC5)C4)CC34CC4)n[nH]2)c(F)cn1 [Example 406, (S)-4-(5-(5-fluoro-2-methoxypyridin-4-yl)-1H-pyrazole-3-carbonyl)-N-(1-((1-fluorocyclopropyl)methyl)azetidin-3-yl)-4-azaspiro[2.5]octane-7-carboxamide] | – | 73.3 | – | – |
| 864 | COc1cc(-c2cc(C(=O)N3CCC(C(=O)NC4(C#N)CCC4)CC3)n[nH]2)c(Cl)cn1 [Example 128, 1-(5-(5-chloro-2-methoxypyridin-4-yl)-1H-pyrazole-3-carbonyl)-N-(1-cyanocyclobutyl)piperidine-4-carboxamide] | – | 2560 | – | – |
| 712 | COc1cc(-c2cc(C(=O)N3CCC(C(=O)NCC4CC(F)(F)C4)CC3)n[nH]2)c(Cl)cn1 [Example 148, 1-(5-(5-chloro-2-methoxypyridin-4-yl)-1H-pyrazole-3-carbonyl)-N-((3,3-difluorocyclobutyl)methyl)piperidine-4-carboxamide] | – | 3170 | – | – |
| 8 | COc1cc(-c2cc(C(=O)N3CC[C@H](C(=O)NCc4ncccc4C)CC34CC4)n[nH]2)c(F)cn1 [Example 359, (S)-4-(5-(5-fluoro-2-methoxypyridin-4-yl)-1H-pyrazole-3-carbonyl)-N-((3-methylpyridin-2-yl)methyl)-4-azaspiro[2.5]octane-7-carboxamide] | – | 19.9 | – | – |
| – | COc1cc(-c2cc(C(=O)N3CCC(C(=O)NC(C)c4cccc(Cl)c4)CC3)n[nH]2)c(Cl)cn1 (single isomer, unassigned) [Example 115-A] | – | – | 717 | 1320 |
| 39 | COc1cc(-c2cc(C(=O)N3CC[C@@H](C(=O)NCc4ccc5[nH]nc(F)c5c4)CC34CC4)n[nH]2)c(F)cn1 (single isomer, unassigned) [Example 288-B] | – | 56.8 | – | – |
| 6 | COc1cc(-c2cc(C(=O)N3CC[C@H](C(=O)NCc4ncc(F)cc4C(F)(F)F)CC34CC4)n[nH]2)c(F)cn1 [Example 363, (S)-4-(5-(5-fluoro-2-methoxypyridin-4-yl)-1H-pyrazole-3-carbonyl)-N-((5-fluoro-3-(trifluoromethyl)pyridin-2-yl)methyl)-4-azaspiro[2.5]octane-7-carboxamide] | – | 3.5 | – | – |
| 708 | COc1cc(-c2cc(C(=O)N3CCC(C(=O)NC4C(=O)N(C)Cc5ccccc54)CC3)n[nH]2)c(Cl)cn1 (racemic) [Example 240, 1-(5-(5-chloro-2-methoxypyridin-4-yl)-1H-pyrazole-3-carbonyl)-N-(2-methyl-3-oxo-1,2,3,4-tetrahydroisoquinolin-4-yl)piperidine-4-carboxamide] | – | 6050 | – | – |
| 3.5 | COc1cc(-c2cc(C(=O)N3CC[C@H](C(=O)NCC45CCC(O)(CC4)CC5)CC34CC4)n[nH]2)c(F)cn1 (single isomer, unassigned) [Example 313-B] | – | 13.9 | – | – |
| 134 | COc1cc(-c2cc(C(=O)N3CCC(C(=O)NCC45CC(CCO4)C5)CC3)n[nH]2)c(Cl)cn1 [Example 230] | – | 697 | – | – |
| 22.5 | COc1cc(-c2cc(C(=O)N3CC[C@H](C(=O)NCc4ncc(N5CC6CC5CN6)cc4Cl)CC34CC4)n[nH]2)c(F)cn1 (single isomer, unassigned) [Example 462-A] | 551 | – | – | – |
| 383 | COc1cc(-c2cc(C(=O)N3CCC(C(=O)NC4CC(C)(F)C4)CC3)n[nH]2)c(Cl)cn1 (mixture of isomers) [Example 246, 1-(5-(5-chloro-2-methoxypyridin-4-yl)-1H-pyrazole-3-carbonyl)-N-(3-fluoro-3-methylcyclobutyl)piperidine-4-carboxamide] | – | 1230 | – | – |
| 476 | Cc1cc(-c2cc(C(=O)N3CCC(C(=O)NC4CCC(O)(C(F)(F)F)CC4)CC34CC4)n[nH]2)ncn1 (single isomer, unassigned) [Example 339-A] | 3800 | – | – | – |
| 807 | COc1cc(-c2cc(C(=O)N3CCC(C(=O)NC4COC(C)OC4)CC3)n[nH]2)c(Cl)cn1 (mixture of isomers) [Example 121, 1-[5-(5-Chloro-2-methoxypyridin-4-yl)-1H-pyrazole-3-carbonyl]-N-(2-methyl-1,3-dioxan-5-yl) piperidine-4-carboxamide] | – | 2220 | – | – |
| 947 | COc1cc(-c2cc(C(=O)N3CCC(C(=O)NC4CN(C)Cc5ccccc54)CC3)n[nH]2)c(Cl)cn1 (racemic) [Example 227, 1-(5-(5-chloro-2-methoxypyridin-4-yl)-1H-pyrazole-3-carbonyl)-N-(2-methyl-1,2,3,4-tetrahydroisoquinolin-4-yl)piperidine-4-carboxamide] | – | 5960 | – | – |
| 197 | COc1cc(-c2cc(C(=O)N3CCC(C(=O)NCc4ccc5n[nH]nc5c4)CC3)n[nH]2)c(Cl)cn1 [Example 197, N-((2H-benzo[d][1,2,3]triazol-5-yl)methyl)-1-(5-(5-chloro-2-methoxypyridin-4-yl)-1H-pyrazole-3-carbonyl)piperidine-4-carboxamide] | – | 3930 | – | – |
| 9.1 | COc1cc(-c2cc(C(=O)N3CC[C@H](C(=O)NCc4ncc(C5COC5)cc4Cl)CC34CC4)n[nH]2)c(F)cn1 [Example 392, (S)—N-((3-chloro-5-(oxetan-3-yl)pyridin-2-yl)methyl)-4-(5-(5-fluoro-2-methoxypyridin-4-yl)-1H-pyrazole-3-carbonyl)-4-azaspiro[2.5]octane-7-carboxamide] | – | 45.2 | – | – |
| 246 | COc1cc(-c2cc(C(=O)N3CCC(C(=O)NCc4cccc(C(F)F)n4)CC3)n[nH]2)c(Cl)cn1 [Example 239, 1-(5-(5-chloro-2-methoxypyridin-4-yl)-1H-pyrazole-3-carbonyl)-N-((6-(difluoromethyl)pyridin-2-yl)methyl)piperidine-4-carboxamide] | – | 1400 | – | – |

| SMILES | AC50 (His6-TEV-PPARγ-(234-505)) [nM] | IC50 (UM-UC-9 engineered cells) [nM] | IC50 (UM-UC-9 engineered cells; Homo sapiens, UM-UC-9, 144 h) [nM] | AC50 (His6-TEV-PPARγ-(234-505); listed as 115a) [nM] | IC50 (UM-UC-9 engineered cells; listed as 115a) [nM] |
| --- | --- | --- | --- | --- | --- |
| O=C(NCc1ncc(F)cc1Cl)C1CCN(C(=O)c2cc(-c3cc(C4CC4)ncc3F)[nH]n2)C2(CC2)C1 (racemic) [Example 480, (S)—N-((3-chloro-5-fluoropyridin-2-yl)methyl)-4-(5-(2-cyclopropyl-5-fluoropyridin-4-yl)-1H-pyrazole-3-carbonyl)-4-azaspiro[2.5]octane-7-carboxamide and (R)—N-((3-chloro-5-fluoropyridin-2-yl)methyl)-4-(5-(2-cyclopropyl-5-fluoropyridin-4-yl)-1H-pyrazole-3-carbonyl)-4-azaspiro[2.5]octane-7-carboxamide] | 17.6 | 371 | – | – | – |
| COc1cc(-c2cc(C(=O)N3CCC(NC(=O)C4CCC(O)(C(F)(F)F)CC4)CC34CC4)n[nH]2)c(F)cn1 (mixture of isomers) [Example 347] | 317 | 1860 | – | – | – |
| Cc1cc(-c2cc(C(=O)N3[C@@H]4CC[C@H]3C[C@H](C(=O)N[C@H]3CC[C@@](O)(C(F)(F)F)CC3)C4)n[nH]2)c2cn[nH]c2n1 [Example 315, (1R,3s,5S)—N-((1r,4R)-4-hydroxy-4-(trifluoromethyl)cyclohexyl)-8-(5-(6-methyl-1H-pyrazolo[3,4-b]pyridin-4-yl)-1H-pyrazole-3-carbonyl)-8-azabicyclo[3.2.1]octane-3-carboxamide] | 863 | – | > 10000 | – | – |
